The source of these data is ChEMBL document CHEMBL1201862, “PubChem BioAssay data set” (2004).

The target in assay [1] is T1, Endoribonuclease toxin MazF (Escherichia coli K-12, UniProt P0AE70).
T1 sequence (P0AE70 whole entry): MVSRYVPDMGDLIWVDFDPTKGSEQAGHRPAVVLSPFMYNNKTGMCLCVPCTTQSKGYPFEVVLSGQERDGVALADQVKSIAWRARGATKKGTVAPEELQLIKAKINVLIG
Nature of the assay: fluorescent RNA oligo signal without MazF, dose response, counter-screen for MazEF activator project, biochemical, fluorescence, single-stranded RNase substrate (AID 588502). It is filed as functional. On the technique in general: The purpose of a counterscreen is to sort out artefacts and off-target activity.

Assay [2] concerns the target T1, Endoribonuclease toxin MazF. Nature of the assay: MazF toxin RNase activators, dose response, biochemical, fluorescence, single-stranded RNA substrate, uHTS hits (AID 588481). The format is functional.
In assay [3] the target is T2, RNA-binding protein pos-1 (Caenorhabditis elegans, UniProt G5EF15).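 Further: purified POS-1 fused to maltose binding protein made in E. coli; potency of compounds blocking POS-1 binding to fluorescent RNA.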
T2 sequence (G5EF15 whole entry): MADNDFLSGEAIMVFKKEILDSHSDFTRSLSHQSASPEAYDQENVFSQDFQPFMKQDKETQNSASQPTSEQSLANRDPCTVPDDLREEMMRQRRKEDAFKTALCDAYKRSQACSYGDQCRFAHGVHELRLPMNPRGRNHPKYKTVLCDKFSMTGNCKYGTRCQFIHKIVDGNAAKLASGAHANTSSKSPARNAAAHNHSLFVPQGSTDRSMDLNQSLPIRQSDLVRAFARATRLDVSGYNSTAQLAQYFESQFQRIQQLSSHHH
Nature of the assay: inhibitors of POS-1/mex-3 RNA binding, dose response, biochemical, fluorescence polarization (AID 1964). (In general: Polarisation of emitted light reports the rotation of a fluorescent probe.)

For assay [4], the system named is Streptococcus. Description: Group A Streptococcus viability loss, dose response, counter-screen for streptokinase expression inhibitor project, luminescence, BacTiterGlo (AID 1915).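 Further: potency for reduction of bacterial viability or growth.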 The format is functional, organism-based.
Assay [5] has as its target T3, Streptokinase A (Streptococcus pyogenes serotype M1, UniProt P10520).
T3 sequence (P10520 whole entry): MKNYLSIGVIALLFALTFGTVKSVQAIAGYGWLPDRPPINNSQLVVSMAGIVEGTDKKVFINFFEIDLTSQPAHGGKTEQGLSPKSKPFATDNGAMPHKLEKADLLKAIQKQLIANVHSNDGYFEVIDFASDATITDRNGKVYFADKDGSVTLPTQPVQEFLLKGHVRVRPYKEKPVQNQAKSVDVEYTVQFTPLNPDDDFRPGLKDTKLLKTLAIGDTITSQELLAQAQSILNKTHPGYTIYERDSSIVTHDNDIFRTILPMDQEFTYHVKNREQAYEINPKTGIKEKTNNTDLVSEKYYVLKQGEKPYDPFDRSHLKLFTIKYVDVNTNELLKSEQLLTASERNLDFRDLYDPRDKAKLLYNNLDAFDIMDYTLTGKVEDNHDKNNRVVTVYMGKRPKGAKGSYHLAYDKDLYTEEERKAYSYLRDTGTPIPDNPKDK
Nature of the assay: S. pyogenes streptokinase expression inhibitors, potency, dose response, plasminogen activation absorbance, OD405 (AID 1914).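 Further: secreted streptokinase activity via plasminogen activation per viability signal from cell pellet.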 The format is functional, Streptococcus pyogenes M1 GAS.

Assay [6] addresses T4, Zinc finger protein mex-5 (Caenorhabditis elegans, UniProt Q9XUB2).
T4 sequence (Q9XUB2 whole entry): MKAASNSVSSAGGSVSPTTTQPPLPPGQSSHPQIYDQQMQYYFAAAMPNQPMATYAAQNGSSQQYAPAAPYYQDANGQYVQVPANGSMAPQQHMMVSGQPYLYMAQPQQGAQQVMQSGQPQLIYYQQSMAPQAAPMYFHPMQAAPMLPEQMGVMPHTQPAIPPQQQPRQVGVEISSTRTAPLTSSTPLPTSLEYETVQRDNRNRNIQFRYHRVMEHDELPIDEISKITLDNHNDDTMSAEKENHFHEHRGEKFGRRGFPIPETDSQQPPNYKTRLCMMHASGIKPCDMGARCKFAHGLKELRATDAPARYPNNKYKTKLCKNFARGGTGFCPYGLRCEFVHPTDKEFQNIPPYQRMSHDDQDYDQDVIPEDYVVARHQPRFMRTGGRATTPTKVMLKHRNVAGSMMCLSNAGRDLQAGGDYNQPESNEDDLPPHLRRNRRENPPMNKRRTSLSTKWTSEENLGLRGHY
Description: MEX-5/TCR-2 RNA interaction inhibitors, dose response, biochemical, C. elegans, fluorescence polarization (AID 1960).

Assay [7] has as its target Beta-galactosidase (Escherichia coli, UniProt Q8VNN2). Description: Dose response counterscreen for EBI2 assay utilizing the enzyme, b-galactosidase. The format is functional.
Assay [8] concerns the target Heat shock protein HSP 90-alpha (Homo sapiens, UniProt P07900). Nature of the assay: Luminescence-based dose response biochemical high throughput screening assay for inhibitors of the Heat Shock Protein 90 (HSP90). [Related pubchem assays: 1831 (Summary AID.), 1846 (Confirmation screen.), 1789 (Primary screen.)].
In assay [9] the target is Fructose-bisphosphate aldolase (Mycobacterium tuberculosis, UniProt P9WQA3). Nature of the assay: Fluorescence-based biochemical high throughput dose response assay for inhibitors of the fructose-bisphosphate aldolase (FBA) of M. tuberculosis. The format is functional.
Assay [10] addresses 72 kDa type IV collagenase (Homo sapiens, UniProt P08253). Nature of the assay: Dose Response validation of uHTS RPN11 inhibitor hits using a MMP-2 Fluorescence assay. It is filed as functional.
Assay [11] concerns the target 26S proteasome non-ATPase regulatory subunit 14 (Homo sapiens, UniProt O00487). Nature of the assay: inhibition of proteasome subunit RPN11 – biochemical, fluorescence polarization, uHTS hits, confirmation (AID 602368). The format is functional.
Assay [12] has as its target T5, Sentrin-specific protease 1 (Homo sapiens, UniProt Q9P0U3).
T5 sequence (Q9P0U3 whole entry): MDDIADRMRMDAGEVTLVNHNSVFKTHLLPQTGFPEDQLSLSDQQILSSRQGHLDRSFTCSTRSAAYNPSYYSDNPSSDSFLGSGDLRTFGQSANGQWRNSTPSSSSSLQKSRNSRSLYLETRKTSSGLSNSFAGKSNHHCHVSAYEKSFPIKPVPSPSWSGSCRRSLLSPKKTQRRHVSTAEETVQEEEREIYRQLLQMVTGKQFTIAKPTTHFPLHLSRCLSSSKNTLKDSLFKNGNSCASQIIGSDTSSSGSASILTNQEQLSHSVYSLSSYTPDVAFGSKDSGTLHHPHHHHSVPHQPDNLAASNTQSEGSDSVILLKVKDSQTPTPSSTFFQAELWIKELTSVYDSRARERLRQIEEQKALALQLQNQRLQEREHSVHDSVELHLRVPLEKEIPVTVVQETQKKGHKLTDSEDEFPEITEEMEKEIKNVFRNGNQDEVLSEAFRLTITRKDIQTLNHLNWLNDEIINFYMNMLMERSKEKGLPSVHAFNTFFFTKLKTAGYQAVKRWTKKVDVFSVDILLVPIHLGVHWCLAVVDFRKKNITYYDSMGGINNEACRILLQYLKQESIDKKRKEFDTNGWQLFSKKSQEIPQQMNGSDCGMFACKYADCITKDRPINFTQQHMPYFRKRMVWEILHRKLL
Nature of the assay: Dose response confirmation of small molecule inhibitors of the catalytic domain of the SUMO protease, SENP1 in a FRET assay. The format is functional. The following applies: read-out: IC50_Mean.

In assay [13] the target is Prothrombin (Bos taurus, UniProt P00735). Description: thrombin inhibition, dose response, biochemical, fluorescence polarization, uHTS hits (AID 602369). It is filed as functional.
The target of assay [14] is T5, Sentrin-specific protease 1. Description: potency of human SENP1 inhibitors, dose response, biochemical, kinetic FRET (AID 651697). It is filed as functional. The following applies: read-out: IC50_Mean.
The nature of assay [15]: cytotoxicity toward NIH3T3 fibroblasts, dose response, counter-screen, cell-based, ATP luminescence, mouse fibroblasts (AID 2010).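 Further: cells exposed to compound for about 90 hours before reading.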 The format is functional.
For assay [16], the system named is A-375. Nature of the assay: MITF: Counter assay: A375 proliferation Measured in Cell-Based System Using Plate Reader - 2084-03_Inhibitor_Dose_DryPowder_Activity. [Related pubchem assays (depositor defined):AID488944]. It is filed as functional. The following applies: Homo sapiens.
The nature of assay [17]: inhibitors of intracellular T. cruzi replication, confirmation, NIH3T3 host cells, beta-gal luminescence (AID 2044).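 Further: intracellular parasites grown in NIH/3T3 mouse fibroblasts as host cells; luminescent beta-galactosidase reporter signal from transgenic T. cruzi replicating inside host cells; inhibitors lower the luminescence signal.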 It is filed as functional, cell-based.
Assay [18] concerns the target Nuclear receptor subfamily 0 group B member 1 (Homo sapiens, UniProt P51843). The format is functional, cell-based.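 Further: HEK293T cells transfected with SF-1 and DAX-1 plus StAR promoter luciferase reporter.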
A short description of assay [19]: cells. It is filed as functional, cell-based.
Assay [20] in a line: microbe, parasite or virus in culture. The following applies: Mycobacterium tuberculosis. It is filed as functional.
Assay [21] relates to HEK293. Nature of the assay: HEK293T cell cytotoxicity, dose response, cytotoxicity control, ATP luminescence, cherry-pick samples (AID 687005).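 Further: cells exposed to compound for 48 hours.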 It is filed as functional, cell-based. The following applies: Homo sapiens.
The nature of assay [22]: HEK293 Cytotoxicity Assay Measured in Cell-Based System Using Plate Reader - 7071-01_Inhibitor_Dose_CherryPick_Activity_Set2. It is filed as functional.

The structures appear in SMILES notation. Calls of active or inactive are those of the source.

Beta-galactosidase, sequence (Q8VNN2 whole entry): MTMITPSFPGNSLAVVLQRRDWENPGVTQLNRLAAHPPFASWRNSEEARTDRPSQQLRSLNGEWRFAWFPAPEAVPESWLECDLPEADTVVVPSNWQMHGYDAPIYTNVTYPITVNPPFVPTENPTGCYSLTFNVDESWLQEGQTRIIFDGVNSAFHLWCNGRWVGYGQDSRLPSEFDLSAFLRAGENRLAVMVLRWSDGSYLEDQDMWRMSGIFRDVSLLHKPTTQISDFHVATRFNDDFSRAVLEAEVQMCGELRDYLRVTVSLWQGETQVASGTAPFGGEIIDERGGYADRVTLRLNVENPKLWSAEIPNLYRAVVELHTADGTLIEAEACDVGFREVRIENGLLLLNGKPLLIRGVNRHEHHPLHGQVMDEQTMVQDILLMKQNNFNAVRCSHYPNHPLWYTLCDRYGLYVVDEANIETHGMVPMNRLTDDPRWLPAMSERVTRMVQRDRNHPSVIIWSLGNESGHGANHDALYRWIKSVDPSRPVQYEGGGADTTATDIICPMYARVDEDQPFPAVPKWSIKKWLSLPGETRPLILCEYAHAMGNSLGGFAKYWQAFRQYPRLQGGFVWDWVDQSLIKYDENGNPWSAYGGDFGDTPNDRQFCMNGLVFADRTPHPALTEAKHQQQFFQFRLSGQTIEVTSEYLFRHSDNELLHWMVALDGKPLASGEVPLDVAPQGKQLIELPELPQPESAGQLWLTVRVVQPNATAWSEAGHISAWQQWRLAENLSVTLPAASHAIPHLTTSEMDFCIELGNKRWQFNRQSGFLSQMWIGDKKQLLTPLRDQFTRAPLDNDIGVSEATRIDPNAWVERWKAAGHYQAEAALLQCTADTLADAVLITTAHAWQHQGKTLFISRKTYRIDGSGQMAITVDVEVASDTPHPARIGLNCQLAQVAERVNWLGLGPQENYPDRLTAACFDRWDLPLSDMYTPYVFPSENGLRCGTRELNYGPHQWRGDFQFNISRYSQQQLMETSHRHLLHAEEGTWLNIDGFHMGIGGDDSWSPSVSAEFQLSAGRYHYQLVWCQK
Fructose-bisphosphate aldolase, sequence (P9WQA3 whole entry): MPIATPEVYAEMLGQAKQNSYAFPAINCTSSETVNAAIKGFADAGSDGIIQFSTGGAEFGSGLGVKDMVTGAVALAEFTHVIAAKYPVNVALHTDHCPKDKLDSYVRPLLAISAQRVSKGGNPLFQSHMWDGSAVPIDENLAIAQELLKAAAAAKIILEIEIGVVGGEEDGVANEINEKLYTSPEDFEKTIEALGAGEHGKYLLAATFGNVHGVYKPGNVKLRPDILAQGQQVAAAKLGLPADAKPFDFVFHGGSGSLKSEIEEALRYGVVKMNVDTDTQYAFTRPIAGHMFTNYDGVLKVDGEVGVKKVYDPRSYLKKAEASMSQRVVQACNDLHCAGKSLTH
72 kDa type IV collagenase, sequence (P08253 whole entry): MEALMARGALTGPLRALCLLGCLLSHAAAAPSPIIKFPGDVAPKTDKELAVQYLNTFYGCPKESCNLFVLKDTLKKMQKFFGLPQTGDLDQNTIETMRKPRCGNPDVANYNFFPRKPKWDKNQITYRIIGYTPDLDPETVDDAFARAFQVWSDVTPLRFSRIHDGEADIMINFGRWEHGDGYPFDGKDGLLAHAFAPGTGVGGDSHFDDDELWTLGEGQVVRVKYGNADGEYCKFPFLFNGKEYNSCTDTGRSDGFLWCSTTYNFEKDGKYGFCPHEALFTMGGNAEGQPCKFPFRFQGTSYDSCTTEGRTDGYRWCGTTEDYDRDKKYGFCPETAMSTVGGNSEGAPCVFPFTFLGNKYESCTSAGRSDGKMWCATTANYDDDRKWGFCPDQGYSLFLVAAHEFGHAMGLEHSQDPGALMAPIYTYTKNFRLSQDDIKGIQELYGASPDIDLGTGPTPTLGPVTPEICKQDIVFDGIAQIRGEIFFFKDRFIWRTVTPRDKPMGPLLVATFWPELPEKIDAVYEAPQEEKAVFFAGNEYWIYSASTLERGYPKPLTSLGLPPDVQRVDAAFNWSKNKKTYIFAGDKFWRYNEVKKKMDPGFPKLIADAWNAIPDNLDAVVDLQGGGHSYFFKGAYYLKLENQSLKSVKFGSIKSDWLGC
Nuclear receptor subfamily 0 group B member 1, sequence (P51843 whole entry): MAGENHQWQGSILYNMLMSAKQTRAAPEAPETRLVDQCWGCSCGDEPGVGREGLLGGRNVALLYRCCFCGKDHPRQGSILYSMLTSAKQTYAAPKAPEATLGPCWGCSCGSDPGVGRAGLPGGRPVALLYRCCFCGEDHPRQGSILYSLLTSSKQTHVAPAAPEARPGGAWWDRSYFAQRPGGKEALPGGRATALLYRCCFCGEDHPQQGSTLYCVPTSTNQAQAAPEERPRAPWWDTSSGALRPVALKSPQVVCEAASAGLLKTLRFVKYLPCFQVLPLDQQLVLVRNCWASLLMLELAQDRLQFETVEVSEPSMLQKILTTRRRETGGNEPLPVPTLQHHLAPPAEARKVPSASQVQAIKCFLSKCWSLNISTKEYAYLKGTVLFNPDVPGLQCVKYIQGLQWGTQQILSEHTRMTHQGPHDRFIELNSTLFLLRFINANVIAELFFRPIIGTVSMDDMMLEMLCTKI
26S proteasome non-ATPase regulatory subunit 14, sequence (O00487 whole entry): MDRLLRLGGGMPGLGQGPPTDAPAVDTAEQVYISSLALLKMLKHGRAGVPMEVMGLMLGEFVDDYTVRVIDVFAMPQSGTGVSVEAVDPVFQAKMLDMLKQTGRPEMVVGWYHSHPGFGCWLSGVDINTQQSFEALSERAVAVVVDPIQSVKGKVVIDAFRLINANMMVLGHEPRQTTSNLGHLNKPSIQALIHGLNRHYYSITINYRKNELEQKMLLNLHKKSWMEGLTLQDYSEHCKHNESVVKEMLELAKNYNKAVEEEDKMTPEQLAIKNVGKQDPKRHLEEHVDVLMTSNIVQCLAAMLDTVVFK

In general, EC50 refers to the concentration needed to bring the measured effect to its halfway point. Regarding `COC(=O)/C=C1\C(=O)N(c2nc3ccccc3s2)C(=S)N1c1ccc(F)cc1`, the EC50 in assay [1] is > 99 µM (inactive); in assay [2] it was > 99 µM (inactive); in assay [3], > 300 µM (not active); in assay [4], > 150 µM (not active); in assay [5], > 150 µM (not active); in assay [6] it was > 300 µM (not active). In assay [7], the IC50 was > 80 µM (inactive).
As to `Nc1c(-c2ccccc2)cnn1-c1ccc(C(=O)O)cc1`, in [8], the IC50 is 5.93 µM (active).
Regarding `CCC(=O)Nc1ccc2c(c1)C(=O)N(C)C2=O`, in [9], the IC50 was 4.38 µM (active).
Consider `COc1cccc(NC2=Nc3cccc4cccc2c34)c1`, for which the IC50 in [10] was > 100 µM (inactive); in [11] it was 27.6 µM (active); in assay [12] it was 41.3 µM (inactive); in assay [13], 37.8 µM (active); in assay [14], 27.7 µM (inactive).
Broadly, the AC50 is the concentration giving half of the maximal activity seen. `Cc1cc(C)c2nc(N3CCC(C(=O)NCCCN4CC(C)CC(C)C4)CC3)sc2c1` (stereo not given): the EC50 is > 60 µM (not active) in [15] and 1.22 µM (active) in [17]. Further, in assay [16], the AC50 is 21.5 µM (active). Moreover, the IC50 in assay [8] was 8.62 µM (active).
Take `CCOC(=O)c1c(S(=O)(=O)Nc2ccc(CN3CCC(C)CC3)cc2)c(C)n(C)c1C`: the IC50 in assay [18] and in [19] was > 67.5 µM (inactive) in each case.
For `Cc1nc2c(cc1N)nc(C)n2Cc1ccccc1`, in assay [9], the IC50 was 0.653 µM (active).
Take `CCOC(=O)c1ccc(/N=c2\sc(C(=O)OC)cc(=O)n2CCCN2CCOCC2)cc1`: in assay [20], the CC50 was > 40 µM (active). For the same molecule, in assay [7], the IC50 was > 80 µM (inactive).
For `COc1ccccc1CNC(=O)C[C@@H]1CC[C@@H]2[C@H](COc3ccc(NC(C)=O)cc3C(=O)N2C)O1`, the AC50 in assay [21] and in assay [22] was 37.8 µM (active) in each case.
